The source made the active and inactive calls.
What was measured:
PC-3 [1] = experiment: Induction of apoptosis in human PC3 cells assessed as increase in PARP cleavage at 15 to 30 uM after 24 hrs by Western blotting; format: functional, cell-based
PC-3 [2] = experiment: Cell cycle arrest in human PC3 cells assessed as sub-G1 accumulation after 24 hrs by propidium iodide staining-based flow cytometry; format: functional
PC-3 [3] = experiment: Induction of apoptosis in human PC3 cells assessed as apoptotic bodies at 15 to 30 uM after 24 hrs by inverted microscopy; format: functional, cell-based
PC-3 [4] = experiment: Induction of apoptosis in human PC3 cells assessed as cell shrinkage at 15 to 30 uM after 24 hrs by inverted microscopy; format: functional, cell-based
PC-3 [5] = experiment: Induction of apoptosis in human PC3 cells assessed as supression of Cyclin-D1 expression at 15 to 30 uM after 24 hrs by Western blotting; format: functional, cell-based
PC-3 [6] = experiment: Induction of apoptosis in human PC3 cells assessed as supression of survivin expression at 15 to 30 uM after 24 hrs by Western blotting; format: functional, cell-based
PC-3 [7] = experiment: Induction of apoptosis in human PC3 cells assessed as supression of Cyclin-D1 mRNA expression at 15 to 30 uM after 24 hrs by RT-PCR analysis; format: functional, cell-based
PC-3 [8] = experiment: Induction of apoptosis in human PC3 cells assessed as increase in caspase-3 cleavage at 15 to 30 uM after 24 hrs by immunofluorescence assay relative to control; format: functional, cell-based
PC-3 [9] = experiment: Induction of apoptosis in human PC3 cells assessed as supression of Bcl-XL mRNA expression at 15 to 30 uM after 24 hrs by RT-PCR analysis; format: functional, cell-based
PC-3 [10] = experiment: Cell cycle arrest in human PC3 cells assessed as sub-G1 accumulation at 30 uM after 24 hrs by propidium iodide staining-based flow cytometry in presence of Z-DEVD-FMK; format: functional
PC-3 [11] = experiment: Induction of apoptosis in human PC3 cells assessed as increase in caspase-3 cleavage at 15 to 30 uM after 24 hrs by Western blotting; format: functional, cell-based
PC-3 [12] = experiment: Induction of apoptosis in human PC3 cells assessed as supression of survivin mRNA expression at 15 to 30 uM after 24 hrs by RT-PCR analysis; format: functional, cell-based
PC-3 [13] = experiment: Induction of apoptosis in human PC3 cells assessed as supression of Bcl-XL expression at 15 to 30 uM after 24 hrs by Western blotting; format: functional, cell-based
PC-3 [14] = experiment: Induction of apoptosis in human PC3 cells assessed as increase in caspase-3 cleavage at 30 uM after 24 hrs by Western blotting in presence of Z-DEVD-FMK; format: functional, cell-based
PC-3 [15] = experiment: Cytotoxicity against human PC3 cells after 24 hrs by MTT assay; format: functional, cell-based
PC-3 [16] = experiment: Induction of apoptosis in human PC3 cells assessed as increase in PARP cleavage at 30 uM after 24 hrs by Western blotting in presence of Z-DEVD-FMK; format: functional, cell-based
PC-3 [17] = experiment: Induction of apoptosis in human PC3 cells assessed as supression of Bcl-2 mRNA expression at 15 to 30 uM after 24 hrs by RT-PCR analysis; format: functional, cell-based
PC-3 [18] = experiment: Induction of apoptosis in human PC3 cells assessed as supression of Bcl-2 expression at 15 to 30 uM after 24 hrs by Western blotting; format: functional, cell-based

Measured: Activity

COc1cc(O)c2c(=O)cc(-c3ccc(OC)c(-c4c(O)cc(O)c5c(=O)cc(-c6ccc(O)cc6)oc45)c3)oc2c1
active: PC-3 [1] | PC-3 [2] Dose-dependent effect | PC-3 [3] | PC-3 [4] | PC-3 [5] | PC-3 [6] | PC-3 [7] | PC-3 [8] | PC-3 [9] | PC-3 [10] | PC-3 [11] | PC-3 [12] | PC-3 [13] | PC-3 [14] | PC-3 [15] Dose-dependent effect | PC-3 [16] | PC-3 [17] | PC-3 [18]

Reference: ChEMBL document CHEMBL2380227, “Ginkgetin induces apoptosis via activation of caspase and inhibition of survival genes in PC-3 prostate cancer cells” (Bioorg Med Chem Lett, 2013)
